In ChEMBL document CHEMBL1201862, “PubChem BioAssay data set” (2004):
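A five-concentration, 48-hour dose response in 96-well plates underlies each endpoint, interpolated linearly between surrounding concentrations. GI50 marks 50% less growth.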 Calls of active or inactive are those of the source. Rule as the data show it: active = GI50 up to about 1.1 µM and inactive = higher.

Tests used:
Assay in all cases: NCI anticancer screen, dose series, 48 h
786-0 = test system: 786-0
A549 = test system: A549
CCRF-CEM = test system: CCRF-CEM
HCT-15 = test system: HCT-15
HL-60 = test system: HL-60
HOP-62 = test system: HOP-62
HOP-92 = test system: HOP-92
KM12 = test system: KM12
MCF7 = test system: MCF7
MDA-MB-435 = test system: MDA-MB-435
MOLT-4 = test system: MOLT-4
Malme-3M = test system: Malme-3M
NCI-H23 = test system: NCI-H23
NCI-H522 = test system: NCI-H522
SF-539 = test system: SF-539
SNB-19 = test system: SNB-19
T47D = test system: T47D
UACC-257 = test system: UACC-257
UACC-62 = test system: UACC-62

Compound | GI50 (786-0) | GI50 (A549) | GI50 (CCRF-CEM) | GI50 (HCT-15) [µM] | GI50 (HL-60) | GI50 (HOP-62) | GI50 (HOP-92) | GI50 (KM12) | GI50 (MCF7) | GI50 (MDA-MB-435) | GI50 (MOLT-4) | GI50 (Malme-3M) | GI50 (NCI-H23) | GI50 (NCI-H522) | GI50 (SF-539) | GI50 (SNB-19) | GI50 (T47D) | GI50 (UACC-257) | GI50 (UACC-62)
Clc1ccc2c(SCC3CO3)c3ccccc3nc2c1 (stereo not given) | 1.81 µM (inactive) | 7.31 µM (inactive) | 2.43 µM (inactive) | 1.68 | 1.04 µM (active) | 6.25 µM (inactive) | 2.12 µM (inactive) | 1.7 µM (inactive) | 1.47 µM (inactive) | 3.15 µM (inactive) | 1.85 µM (inactive) | 2.04 µM (inactive) | 3.54 µM (inactive) | 2.08 µM (inactive) | 2.13 µM (inactive) | 5.43 µM (inactive) | 1.66 µM (inactive) | 2.49 µM (inactive) | 3.61 µM (inactive)
COc1cc(C(CN)N(C)C)cc(OC)c1OC (stereo not given) | > 100 µM (inactive) | > 100 µM (inactive) | > 100 µM (inactive) | > 100 | > 100 µM (inactive) | > 100 µM (inactive) | > 100 µM (inactive) | > 100 µM (inactive) | > 100 µM (inactive) | > 100 µM (inactive) | > 100 µM (inactive) | > 100 µM (inactive) | > 100 µM (inactive) | > 100 µM (inactive) | > 100 µM (inactive) | > 100 µM (inactive) | > 100 µM (inactive) | > 100 µM (inactive) | > 100 µM (inactive)
Cc1c2cccc-2c(OCCO)cc2c3ccccc3n(C)c12 | 3.37 µM (inactive) | 3.76 µM (inactive) | 1.92 µM (inactive) | 6.11 | 2.16 µM (inactive) | 2.56 µM (inactive) | 1.77 µM (inactive) | 3.21 µM (inactive) | 3.65 µM (inactive) | 4.35 µM (inactive) | 3.86 µM (inactive) | 3.85 µM (inactive) | 3.4 µM (inactive) | 2.18 µM (inactive) | 2.54 µM (inactive) | 5.09 µM (inactive) | 3.1 µM (inactive) | 4.36 µM (inactive) | 4.7 µM (inactive)
CC1=C(C)C1[N+](=O)[O-] | > 100 µM (inactive) | > 100 µM (inactive) | > 100 µM (inactive) | > 100 | 43.9 µM (inactive) | > 100 µM (inactive) | > 100 µM (inactive) | > 100 µM (inactive) | > 100 µM (inactive) | > 100 µM (inactive) | > 100 µM (inactive) | 82.6 µM (inactive) | > 100 µM (inactive) | > 100 µM (inactive) | > 100 µM (inactive) | > 100 µM (inactive) | > 100 µM (inactive) | > 100 µM (inactive) | > 100 µM (inactive)
CSc1nc(C)cc(Nc2ccc(O)c(CN3CCOCC3)c2)n1 | > 100 µM (inactive) | > 100 µM (inactive) | > 100 µM (inactive) | > 100 | > 100 µM (inactive) | > 100 µM (inactive) | 62.8 µM (inactive) | > 100 µM (inactive) | > 100 µM (inactive) | > 100 µM (inactive) | 53.6 µM (inactive) | > 100 µM (inactive) | > 100 µM (inactive) | > 100 µM (inactive) | > 100 µM (inactive) | > 100 µM (inactive) | 71.9 µM (inactive) | > 100 µM (inactive) | > 100 µM (inactive)
O=C1/C(=C\c2ccc(Cl)cc2Cl)Sc2scc(-c3cccc([N+](=O)[O-])c3)[n+]21 | 3.39 µM (inactive) | 18.1 µM (inactive) | 0.291 µM (active) | 1.81 | 0.49 µM (active) | 16.5 µM (inactive) | 5.89 µM (inactive) | 11.6 µM (inactive) | 3.98 µM (inactive) | 10 µM (inactive) | 1.45 µM (inactive) | 8.11 µM (inactive) | 12.6 µM (inactive) | 1.43 µM (inactive) | 1.81 µM (inactive) | 12.8 µM (inactive) | 12.2 µM (inactive) | 5.79 µM (inactive) | 8.65 µM (inactive)
O=[N+]([O-])c1ccc(Cl)cc1-n1nc(-c2ccccc2)cc1-c1ccccc1 | > 100 µM (inactive) | > 100 µM (inactive) | > 100 µM (inactive) | > 100 | > 100 µM (inactive) | > 10 µM (inactive) | > 100 µM (inactive) | > 100 µM (inactive) | 95.1 µM (inactive) | > 100 µM (inactive) | > 100 µM (inactive) | > 100 µM (inactive) | > 100 µM (inactive) | > 100 µM (inactive) | 50.5 µM (inactive) | > 100 µM (inactive) | 22.3 µM (inactive) | > 100 µM (inactive) | > 100 µM (inactive)
COC(=O)c1c(O)ccc2c1c1cc3ccccc3c(O)c1n2CCc1ccc(OC)c(OC)c1 | 91.8 µM (inactive) | 43.2 µM (inactive) | 30.1 µM (inactive) | 61.5 | 65.9 µM (inactive) | > 100 µM (inactive) | 31.3 µM (inactive) | 51.3 µM (inactive) | 65.8 µM (inactive) | 53.7 µM (inactive) | 89.3 µM (inactive) | 59.4 µM (inactive) | 93.1 µM (inactive) | 21.1 µM (inactive) | 98.9 µM (inactive) | > 100 µM (inactive) | 42.9 µM (inactive) | > 100 µM (inactive) | > 100 µM (inactive)
COC(NC(N)=O)C(=O)O (stereo not given) | > 100 µM (inactive) | > 100 µM (inactive) | 11 µM (inactive) | > 100 | 0.495 µM (active) | > 100 µM (inactive) | > 100 µM (inactive) | > 100 µM (inactive) | > 100 µM (inactive) | > 100 µM (inactive) | > 100 µM (inactive) | > 100 µM (inactive) | > 100 µM (inactive) | > 100 µM (inactive) | > 100 µM (inactive) | > 100 µM (inactive) | > 100 µM (inactive) | > 100 µM (inactive) | > 100 µM (inactive)
Cc1ccc(C(=O)Oc2ccccc2)cc1/N=N/N(C)C | > 100 µM (inactive) | > 100 µM (inactive) | 91.8 µM (inactive) | > 70.3 | 78 µM (inactive) | > 100 µM (inactive) | > 100 µM (inactive) | 53.3 µM (inactive) | 36.8 µM (inactive) | > 100 µM (inactive) | > 100 µM (inactive) | > 100 µM (inactive) | > 58.6 µM (inactive) | 42.7 µM (inactive) | > 100 µM (inactive) | > 92.3 µM (inactive) | 71.8 µM (inactive) | > 100 µM (inactive) | > 100 µM (inactive)
Cc1ccc(Nc2nc3[nH]ccc3c(=O)[nH]2)cc1 | > 100 µM (inactive) | 66.1 µM (inactive) | > 100 µM (inactive) | 87.5 | 75.5 µM (inactive) | > 100 µM (inactive) | > 100 µM (inactive) | > 100 µM (inactive) | > 100 µM (inactive) | > 100 µM (inactive) | 39.7 µM (inactive) | > 100 µM (inactive) | > 100 µM (inactive) | > 100 µM (inactive) | > 100 µM (inactive) | 96.2 µM (inactive) | 56.1 µM (inactive) | > 100 µM (inactive) | 93.8 µM (inactive)
CC(=O)OCc1ccc2c(c1)C(O)NC(=O)O2 (stereo not given) | > 100 µM (inactive) | > 100 µM (inactive) | 12.4 µM (inactive) | 44.3 | > 100 µM (inactive) | > 100 µM (inactive) | > 100 µM (inactive) | 88.5 µM (inactive) | 78.9 µM (inactive) | > 100 µM (inactive) | 12.8 µM (inactive) | 42.4 µM (inactive) | > 100 µM (inactive) | 68.7 µM (inactive) | > 100 µM (inactive) | > 100 µM (inactive) | 34.6 µM (inactive) | > 100 µM (inactive) | > 100 µM (inactive)
CC(=O)Oc1ccc(OC(Oc2ccccc2)c2ccccc2)cc1 (stereo not given) | 23.8 µM (inactive) | 37.5 µM (inactive) | 27.5 µM (inactive) | 33.9 | 12.6 µM (inactive) | 36.2 µM (inactive) | 19 µM (inactive) | 23.2 µM (inactive) | 35.4 µM (inactive) | 32.4 µM (inactive) | 34 µM (inactive) | 23.6 µM (inactive) | 17.7 µM (inactive) | 42.6 µM (inactive) | 23.1 µM (inactive) | 27.3 µM (inactive) | 39.9 µM (inactive) | 32.2 µM (inactive) | 20.7 µM (inactive)
CC(=O)O[C@H]1C(=O)[C@@]2(C)[C@H]([C@H](OC(=O)c3ccccc3)[C@]3(O)C[C@H](OC(=O)[C@H](O)[C@@H](NC(=O)c4ccccc4)c4ccccc4C)C(C)=C1C3(C)C)[C@]1(OC(C)=O)CO[C@@H]1C[C@@H]2O | 1.64 µM (inactive) | 1.7 µM (inactive) | 0.376 µM (active) | 6.38 | 0.0659 µM (active) | 0.326 µM (active) | 2.13 µM (inactive) | 0.163 µM (active) | 0.113 µM (active) | 0.07 µM (active) | 0.411 µM (active) | 1.66 µM (inactive) | 0.948 µM (active) | 0.556 µM (active) | 0.433 µM (active) | 1.27 µM (inactive) | > 25 µM (inactive) | 0.718 µM (active) | 1.22 µM (inactive)
CN/C(=N\CCSCc1nc[nH]c1C)NC#N [CIMETIDINE] | > 100 µM (inactive) | > 100 µM (inactive) | > 100 µM (inactive) | > 100 | > 100 µM (inactive) | > 100 µM (inactive) | > 100 µM (inactive) | > 100 µM (inactive) | > 100 µM (inactive) | > 100 µM (inactive) | > 100 µM (inactive) | > 100 µM (inactive) | > 100 µM (inactive) | > 100 µM (inactive) | > 100 µM (inactive) | > 100 µM (inactive) | > 100 µM (inactive) | > 100 µM (inactive) | > 100 µM (inactive)
